Data as given in the kinase profiling compilation of Christmann-Franck et al. (2016).

What was measured:
Test in all cases: KINOMEscan competition binding
Details in all cases: compound 10.0 µM
BLK (human) = BLK (human) (UniProt P51451)
BRSK1 (human) = BRSK1 (human) (UniProt Q8TDC3)
BTK (human) = BTK (human) (UniProt Q06187)
CAMK2B (human) = CAMK2B (human) (UniProt Q13554)
CDC42BPA (human) = CDC42BPA (human) (UniProt Q5VT25)
CDK14 (human) = CDK14 (human) (UniProt O94921)
CSNK1A1L (human) = CSNK1A1L (human) (UniProt Q8N752)
CaMK1 (human) = CaMK1 (human) (UniProt Q14012)
DAPK3 (human) = DAPK3 (human) (UniProt O43293)
[1] = tested on: EIF2AK4 KD2 (human), Q9P2K8 [S808G]
EPHA8 (human) = EPHA8 (human) (UniProt P29322)
FGFR3 (human) = FGFR3 (human) (UniProt P22607)
GAK (human) = GAK (human) (UniProt O14976)
GRK7 (human) = GRK7 (human) (UniProt Q8WTQ7)
HCK (human) = HCK (human) (UniProt P08631)
LIMK1 (human) = LIMK1 (human) (UniProt P53667)
LIMK2 (human) = LIMK2 (human) (UniProt P53671)
MAP3K10 (human) = MAP3K10 (human) (UniProt Q02779)
MAP3K4 (human) = MAP3K4 (human) (UniProt Q9Y6R4)
MAP3K6 (human) = MAP3K6 (human) (UniProt O95382)
MAP4K1 (human) = MAP4K1 (human) (UniProt Q92918)
MAP4K3 (human) = MAP4K3 (human) (UniProt Q8IVH8)
MAPK14 (human) = MAPK14 (human) (UniProt Q16539)
MAPK3 (human) = MAPK3 (human) (UniProt P27361)
MARK3 (human) = MARK3 (human) (UniProt P27448)
MAST1 (human) = MAST1 (human) (UniProt Q9Y2H9)
NTRK3 (human) = NTRK3 (human) (UniProt Q16288)
PAK3 (human) = PAK3 (human) (UniProt O75914)
PHKG2 (human) = PHKG2 (human) (UniProt P15735)
PIM2 (human) = PIM2 (human) (UniProt Q9P1W9)
RPS6KA4 KD1 (human) = RPS6KA4 KD1 (human) (UniProt O75676)
SRPK1 (human) = SRPK1 (human) (UniProt Q96SB4)
SRPK2 (human) = SRPK2 (human) (UniProt P78362)
TNK2 (human) = TNK2 (human) (UniProt Q07912)
[2] = molecular target: TYK2 JH1 catalytic (human) (UniProt P29597)
YES1 (human) = YES1 (human) (UniProt P07947)

Sequence of PAK3 (human) (O75914 whole entry, looked up): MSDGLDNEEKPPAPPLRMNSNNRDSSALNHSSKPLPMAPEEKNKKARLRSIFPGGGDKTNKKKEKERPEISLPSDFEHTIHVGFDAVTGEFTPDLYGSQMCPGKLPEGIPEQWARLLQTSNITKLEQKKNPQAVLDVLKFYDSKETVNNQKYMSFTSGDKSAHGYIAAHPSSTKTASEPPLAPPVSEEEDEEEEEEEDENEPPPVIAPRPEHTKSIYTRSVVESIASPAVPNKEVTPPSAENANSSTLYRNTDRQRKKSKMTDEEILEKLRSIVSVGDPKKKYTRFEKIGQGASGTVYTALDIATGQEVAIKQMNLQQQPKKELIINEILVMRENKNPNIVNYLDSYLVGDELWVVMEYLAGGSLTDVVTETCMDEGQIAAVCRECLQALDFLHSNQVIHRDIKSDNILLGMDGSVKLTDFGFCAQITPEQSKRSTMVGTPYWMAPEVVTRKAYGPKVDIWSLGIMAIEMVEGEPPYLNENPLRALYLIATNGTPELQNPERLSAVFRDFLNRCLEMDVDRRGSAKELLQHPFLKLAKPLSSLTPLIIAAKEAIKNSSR
Sequence of TYK2 JH1 catalytic (human) (P29597 whole entry, looked up): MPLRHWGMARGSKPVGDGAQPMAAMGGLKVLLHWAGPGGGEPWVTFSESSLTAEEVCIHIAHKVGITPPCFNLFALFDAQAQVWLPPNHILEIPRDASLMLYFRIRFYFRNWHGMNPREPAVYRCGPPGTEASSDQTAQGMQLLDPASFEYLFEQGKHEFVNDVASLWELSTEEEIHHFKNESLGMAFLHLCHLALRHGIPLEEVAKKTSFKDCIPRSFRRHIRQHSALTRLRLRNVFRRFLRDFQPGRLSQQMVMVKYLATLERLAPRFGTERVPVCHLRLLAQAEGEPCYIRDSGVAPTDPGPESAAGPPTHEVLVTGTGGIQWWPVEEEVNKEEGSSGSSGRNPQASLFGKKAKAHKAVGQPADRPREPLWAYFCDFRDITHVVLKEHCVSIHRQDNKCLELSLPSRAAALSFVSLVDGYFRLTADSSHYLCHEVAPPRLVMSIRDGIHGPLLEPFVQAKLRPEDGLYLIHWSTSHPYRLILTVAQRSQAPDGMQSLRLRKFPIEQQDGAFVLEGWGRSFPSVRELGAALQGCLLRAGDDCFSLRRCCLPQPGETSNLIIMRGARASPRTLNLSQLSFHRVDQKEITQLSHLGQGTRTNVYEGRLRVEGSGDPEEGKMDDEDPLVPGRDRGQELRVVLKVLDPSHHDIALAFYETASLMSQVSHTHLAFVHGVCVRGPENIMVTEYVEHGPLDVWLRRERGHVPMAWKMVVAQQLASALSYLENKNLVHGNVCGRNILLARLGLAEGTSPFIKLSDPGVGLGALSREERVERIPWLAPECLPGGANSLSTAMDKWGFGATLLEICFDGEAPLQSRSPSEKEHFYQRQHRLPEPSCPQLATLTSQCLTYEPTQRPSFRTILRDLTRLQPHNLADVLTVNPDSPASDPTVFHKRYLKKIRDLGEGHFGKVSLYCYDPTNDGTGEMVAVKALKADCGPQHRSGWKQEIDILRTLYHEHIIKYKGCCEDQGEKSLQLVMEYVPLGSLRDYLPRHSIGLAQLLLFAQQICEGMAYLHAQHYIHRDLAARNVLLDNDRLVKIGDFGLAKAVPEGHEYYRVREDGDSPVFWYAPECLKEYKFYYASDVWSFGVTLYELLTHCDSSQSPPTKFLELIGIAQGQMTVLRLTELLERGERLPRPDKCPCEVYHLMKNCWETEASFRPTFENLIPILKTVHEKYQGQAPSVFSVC
Sequence of MAST1 (human) (Q9Y2H9 whole entry, looked up): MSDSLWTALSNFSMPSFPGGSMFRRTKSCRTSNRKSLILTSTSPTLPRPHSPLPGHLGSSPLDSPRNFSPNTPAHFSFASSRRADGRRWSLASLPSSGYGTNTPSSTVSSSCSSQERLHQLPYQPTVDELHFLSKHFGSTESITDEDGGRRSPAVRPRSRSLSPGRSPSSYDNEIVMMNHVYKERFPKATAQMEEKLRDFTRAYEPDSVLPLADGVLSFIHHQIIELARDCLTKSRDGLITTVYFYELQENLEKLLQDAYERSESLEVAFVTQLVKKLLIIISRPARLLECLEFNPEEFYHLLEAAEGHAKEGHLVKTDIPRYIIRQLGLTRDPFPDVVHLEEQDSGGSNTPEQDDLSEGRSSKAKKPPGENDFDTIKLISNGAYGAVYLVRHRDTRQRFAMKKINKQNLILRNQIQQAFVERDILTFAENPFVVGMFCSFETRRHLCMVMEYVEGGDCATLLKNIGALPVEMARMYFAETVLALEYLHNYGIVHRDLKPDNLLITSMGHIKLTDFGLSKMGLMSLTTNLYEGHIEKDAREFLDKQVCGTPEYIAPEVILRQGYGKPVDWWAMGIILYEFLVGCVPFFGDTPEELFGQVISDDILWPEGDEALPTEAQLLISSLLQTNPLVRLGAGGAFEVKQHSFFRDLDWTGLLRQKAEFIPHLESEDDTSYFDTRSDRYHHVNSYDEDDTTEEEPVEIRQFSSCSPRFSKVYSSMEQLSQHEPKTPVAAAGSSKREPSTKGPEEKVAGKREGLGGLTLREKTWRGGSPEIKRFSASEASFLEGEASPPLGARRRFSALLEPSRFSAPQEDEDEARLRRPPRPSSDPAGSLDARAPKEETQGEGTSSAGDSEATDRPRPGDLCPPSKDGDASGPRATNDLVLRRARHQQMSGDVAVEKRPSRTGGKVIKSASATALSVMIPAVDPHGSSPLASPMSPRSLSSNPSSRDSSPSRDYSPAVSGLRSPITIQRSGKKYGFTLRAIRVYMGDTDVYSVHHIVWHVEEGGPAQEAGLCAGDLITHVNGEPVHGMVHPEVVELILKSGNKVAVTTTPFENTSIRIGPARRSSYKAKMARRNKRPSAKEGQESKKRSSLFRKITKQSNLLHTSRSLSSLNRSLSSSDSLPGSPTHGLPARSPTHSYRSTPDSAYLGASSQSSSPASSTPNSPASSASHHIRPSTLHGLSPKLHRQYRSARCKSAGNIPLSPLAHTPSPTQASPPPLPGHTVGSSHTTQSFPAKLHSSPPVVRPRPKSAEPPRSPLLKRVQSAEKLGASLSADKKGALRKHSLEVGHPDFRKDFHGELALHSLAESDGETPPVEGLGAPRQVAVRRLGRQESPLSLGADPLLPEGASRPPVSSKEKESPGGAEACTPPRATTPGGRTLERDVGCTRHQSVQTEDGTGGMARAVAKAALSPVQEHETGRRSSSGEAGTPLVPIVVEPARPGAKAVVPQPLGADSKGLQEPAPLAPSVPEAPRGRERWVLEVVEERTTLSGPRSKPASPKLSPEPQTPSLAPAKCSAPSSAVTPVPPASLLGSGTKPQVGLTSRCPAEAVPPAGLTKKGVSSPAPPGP
Sequence of HCK (human) (P08631 whole entry, looked up): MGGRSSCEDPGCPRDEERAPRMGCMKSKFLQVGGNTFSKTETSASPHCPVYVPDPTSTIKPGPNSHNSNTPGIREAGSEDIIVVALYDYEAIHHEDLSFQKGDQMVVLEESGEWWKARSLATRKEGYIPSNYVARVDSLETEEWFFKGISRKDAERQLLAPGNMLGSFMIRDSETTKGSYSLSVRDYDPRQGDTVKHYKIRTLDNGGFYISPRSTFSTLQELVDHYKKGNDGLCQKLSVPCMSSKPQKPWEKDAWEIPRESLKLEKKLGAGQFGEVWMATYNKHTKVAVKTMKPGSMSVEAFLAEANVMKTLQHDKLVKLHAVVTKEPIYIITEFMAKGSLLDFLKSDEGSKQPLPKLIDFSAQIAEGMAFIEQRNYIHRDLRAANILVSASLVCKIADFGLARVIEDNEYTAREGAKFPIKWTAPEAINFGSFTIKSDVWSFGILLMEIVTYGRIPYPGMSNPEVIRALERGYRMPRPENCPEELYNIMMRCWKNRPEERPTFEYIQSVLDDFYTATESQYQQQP
Sequence of MAP3K6 (human) (O95382 whole entry, looked up): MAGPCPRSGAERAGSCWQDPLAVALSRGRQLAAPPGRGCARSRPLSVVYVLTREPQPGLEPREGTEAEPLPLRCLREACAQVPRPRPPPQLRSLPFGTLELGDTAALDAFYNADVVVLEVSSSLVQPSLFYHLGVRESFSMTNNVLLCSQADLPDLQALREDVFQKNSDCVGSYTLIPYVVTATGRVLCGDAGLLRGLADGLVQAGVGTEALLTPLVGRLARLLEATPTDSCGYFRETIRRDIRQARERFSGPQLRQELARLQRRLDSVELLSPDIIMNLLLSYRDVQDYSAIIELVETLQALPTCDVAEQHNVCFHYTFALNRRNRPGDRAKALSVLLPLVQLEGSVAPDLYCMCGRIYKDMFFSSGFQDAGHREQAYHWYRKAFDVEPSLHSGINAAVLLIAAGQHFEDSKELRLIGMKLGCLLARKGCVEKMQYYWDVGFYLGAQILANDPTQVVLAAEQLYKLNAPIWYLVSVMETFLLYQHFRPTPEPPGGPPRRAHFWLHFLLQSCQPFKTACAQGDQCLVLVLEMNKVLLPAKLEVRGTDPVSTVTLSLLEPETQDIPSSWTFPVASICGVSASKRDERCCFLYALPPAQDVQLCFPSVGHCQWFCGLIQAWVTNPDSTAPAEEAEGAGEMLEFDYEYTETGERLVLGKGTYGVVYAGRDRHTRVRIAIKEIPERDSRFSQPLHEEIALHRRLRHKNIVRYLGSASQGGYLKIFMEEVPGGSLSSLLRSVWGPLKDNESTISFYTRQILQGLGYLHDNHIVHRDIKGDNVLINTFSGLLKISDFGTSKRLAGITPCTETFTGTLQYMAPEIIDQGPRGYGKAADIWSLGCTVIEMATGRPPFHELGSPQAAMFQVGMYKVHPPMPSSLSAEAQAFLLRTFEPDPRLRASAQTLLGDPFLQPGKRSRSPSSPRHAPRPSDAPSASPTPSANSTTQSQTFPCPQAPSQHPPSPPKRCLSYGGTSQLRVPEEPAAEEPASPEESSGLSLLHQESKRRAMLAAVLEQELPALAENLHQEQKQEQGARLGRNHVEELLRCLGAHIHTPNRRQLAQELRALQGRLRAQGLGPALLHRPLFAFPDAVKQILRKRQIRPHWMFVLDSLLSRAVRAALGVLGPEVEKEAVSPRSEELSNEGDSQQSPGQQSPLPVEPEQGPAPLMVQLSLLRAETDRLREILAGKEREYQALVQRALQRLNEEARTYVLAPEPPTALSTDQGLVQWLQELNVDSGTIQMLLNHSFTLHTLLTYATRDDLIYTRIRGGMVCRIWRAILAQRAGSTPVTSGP

Row | kinase still bound, per cent of control (BLK (human)) [%] | kinase still bound, per cent of control (BRSK1 (human)) [%] | kinase still bound, per cent of control (CAMK2B (human)) [%] | kinase still bound, per cent of control (CDC42BPA (human)) [%] | kinase still bound, per cent of control (CDK14 (human)) [%] | kinase still bound, per cent of control (CSNK1A1L (human)) [%] | kinase still bound, per cent of control (CaMK1 (human)) [%] | kinase still bound, per cent of control (DAPK3 (human)) [%] | kinase still bound, per cent of control [1] [%] | kinase still bound, per cent of control (EPHA8 (human)) [%] | kinase still bound, per cent of control (FGFR3 (human)) [%] | kinase still bound, per cent of control (GAK (human)) [%] | kinase still bound, per cent of control (GRK7 (human)) [%] | kinase still bound, per cent of control (HCK (human)) [%] | kinase still bound, per cent of control (LIMK1 (human)) [%] | kinase still bound, per cent of control (LIMK2 (human)) [%] | kinase still bound, per cent of control (MAP3K10 (human)) [%] | kinase still bound, per cent of control (MAP3K4 (human)) [%] | kinase still bound, per cent of control (MAP3K6 (human)) [%] | kinase still bound, per cent of control (MAP4K1 (human)) [%] | other results | SMILES
1 | 100 | 100 | 100 | 100 | 100 | 100 | 100 | 100 | 100 | 100 | 100 | 100 | 100 | 100 | 100 | 100 | 100 | 100 | 100 | 100 | kinase still bound, per cent of control (BTK (human)): 100%; kinase still bound, per cent of control (MAP4K3 (human)): 100%; kinase still bound, per cent of control (MAPK14 (human)): 100%; kinase still bound, per cent of control (MAPK3 (human)): 100%; kinase still bound, per cent of control (MARK3 (human)): 100%; kinase still bound, per cent of control (MAST1 (human)): 100%; kinase still bound, per cent of control (NTRK3 (human)): 100%; kinase still bound, per cent of control (PAK3 (human)): 100%; kinase still bound, per cent of control (PHKG2 (human)): 100%; kinase still bound, per cent of control (PIM2 (human)): 100%; kinase still bound, per cent of control (RPS6KA4 KD1 (human)): 100%; kinase still bound, per cent of control (SRPK1 (human)): 100%; kinase still bound, per cent of control (SRPK2 (human)): 100%; kinase still bound, per cent of control (TNK2 (human)): 100%; kinase still bound, per cent of control [2]: 100%; kinase still bound, per cent of control (YES1 (human)): 100% | OCCCNc1cc(-c2ccnc(Nc3cccc(Cl)c3)n2)ccn1
2 | 100 | 100 | 100 | 100 | 100 | 100 | 100 | 100 | 100 | 100 | 100 | 100 | 100 | 100 | 100 | 100 | 100 | 100 | 100 | 100 | kinase still bound, per cent of control (MAP4K3 (human)): 100%; kinase still bound, per cent of control (MAPK14 (human)): 100%; kinase still bound, per cent of control (MAPK3 (human)): 100%; kinase still bound, per cent of control (MARK3 (human)): 100%; kinase still bound, per cent of control (MAST1 (human)): 100%; kinase still bound, per cent of control (NTRK3 (human)): 100%; kinase still bound, per cent of control (PAK3 (human)): 100%; kinase still bound, per cent of control (PHKG2 (human)): 100%; kinase still bound, per cent of control (PIM2 (human)): 100%; kinase still bound, per cent of control (RPS6KA4 KD1 (human)): 100%; kinase still bound, per cent of control (SRPK1 (human)): 100%; kinase still bound, per cent of control (SRPK2 (human)): 100%; kinase still bound, per cent of control (TNK2 (human)): 100%; kinase still bound, per cent of control [2]: 100%; kinase still bound, per cent of control (YES1 (human)): 100% | Cn1c(=O)n(-c2ccc(C(C)(C)C#N)cc2)c2c3cc(-c4cnc5ccccc5c4)ccc3ncc21
3 | 100 | 100 | 100 | 100 | 100 | 100 | 100 | 100 | 100 | 100 | 100 | 100 | 100 | 100 | 100 | 100 | 100 | 100 | 100 | 100 | kinase still bound, per cent of control (BTK (human)): 100%; kinase still bound, per cent of control (MAP4K3 (human)): 100%; kinase still bound, per cent of control (MAPK14 (human)): 100%; kinase still bound, per cent of control (MAPK3 (human)): 100%; kinase still bound, per cent of control (MARK3 (human)): 100%; kinase still bound, per cent of control (MAST1 (human)): 100%; kinase still bound, per cent of control (NTRK3 (human)): 100%; kinase still bound, per cent of control (PAK3 (human)): 100%; kinase still bound, per cent of control (PHKG2 (human)): 100%; kinase still bound, per cent of control (PIM2 (human)): 100%; kinase still bound, per cent of control (RPS6KA4 KD1 (human)): 100%; kinase still bound, per cent of control (SRPK1 (human)): 0%; kinase still bound, per cent of control (SRPK2 (human)): 100%; kinase still bound, per cent of control (TNK2 (human)): 100%; kinase still bound, per cent of control [2]: 100%; kinase still bound, per cent of control (YES1 (human)): 100% | COc1cc(C(=O)NC2CCN(C)CC2)ccc1Nc1ncc2c(n1)N(C1CCCC1)CCC(=O)N2C(C)C
